Literature values as cited in patent US20240010634A1, “PYRIMIDINYL SULFONAMIDES AS INHIBITORS OF ACK1/TNK2 TYROSINE KINASE” (H. LEE MOFFITT CANCER CENTER AND RESEARCH INSTITUTE, INC., priority 2020, published 2024).

Tests used:
ACK1 = ACK1 (Homo sapiens (Human), UniProt Q07912); details: cited from earlier work
[1] = tested on: cell line which is dependent upon ACK1; details: read-out: IC50, growth of a cell line dependent upon ACK1; cited from earlier work
ACK1 autophosphorylation = details: heregulin-stimulated LNCaP cells; cited from earlier work
[2] = tested on: AR phosphorylation of Tyr-267; details: heregulin-stimulated LNCaP cells; cited from earlier work

Chain of ACK1 (Q07912 whole entry): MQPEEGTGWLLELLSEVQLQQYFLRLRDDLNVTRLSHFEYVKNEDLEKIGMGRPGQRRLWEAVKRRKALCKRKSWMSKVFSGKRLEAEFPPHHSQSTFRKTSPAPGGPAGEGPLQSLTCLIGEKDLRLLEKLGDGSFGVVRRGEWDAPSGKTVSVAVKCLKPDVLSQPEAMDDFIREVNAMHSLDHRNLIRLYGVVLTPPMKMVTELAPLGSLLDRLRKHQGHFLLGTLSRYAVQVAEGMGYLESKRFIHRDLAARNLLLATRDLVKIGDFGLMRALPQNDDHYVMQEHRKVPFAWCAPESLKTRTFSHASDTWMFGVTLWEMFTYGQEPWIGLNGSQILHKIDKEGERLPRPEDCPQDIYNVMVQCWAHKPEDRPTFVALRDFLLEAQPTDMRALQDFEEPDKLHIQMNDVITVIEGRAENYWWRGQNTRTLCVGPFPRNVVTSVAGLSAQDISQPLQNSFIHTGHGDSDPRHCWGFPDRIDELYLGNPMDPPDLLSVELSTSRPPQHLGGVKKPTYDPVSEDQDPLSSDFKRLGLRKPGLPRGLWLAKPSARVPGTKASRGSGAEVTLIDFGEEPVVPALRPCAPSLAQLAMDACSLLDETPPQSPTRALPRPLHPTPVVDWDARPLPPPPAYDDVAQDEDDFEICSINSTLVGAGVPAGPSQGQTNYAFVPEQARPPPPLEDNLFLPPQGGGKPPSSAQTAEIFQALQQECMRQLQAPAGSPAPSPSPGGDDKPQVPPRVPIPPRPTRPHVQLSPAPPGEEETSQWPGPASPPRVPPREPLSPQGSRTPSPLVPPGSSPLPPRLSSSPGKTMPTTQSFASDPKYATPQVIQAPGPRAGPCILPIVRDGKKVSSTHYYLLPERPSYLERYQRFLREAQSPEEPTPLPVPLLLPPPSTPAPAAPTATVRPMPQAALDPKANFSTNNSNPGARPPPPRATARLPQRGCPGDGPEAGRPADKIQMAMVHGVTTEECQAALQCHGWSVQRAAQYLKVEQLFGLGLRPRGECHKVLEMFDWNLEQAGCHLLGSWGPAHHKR

Structure (SMILES) | Ki (ACK1) | IC50 [1] | IC50 (ACK1 autophosphorylation) | IC50 [2]
CN(C)CCOc1ccc(-c2oc3ncnc(NCC4SCCS4)c3c2-c2ccccc2)cc1 [Compound 1c] | 0.3 nM | 5 nM |  | 
Cc1nc(Nc2ncc(C(=O)Nc3c(C)cccc3Cl)s2)cc(N2CCN(CCO)CC2)n1 [Dasatinib] |  |  | < 5 nM | < 5 nM
